Results as given in patent publication US9428469B2, “Antiviral compounds” (priority 2013, dated 2016).
Structures can show the parent of a compound that is named as a salt.

Experiments:
[1] = system: VSVpp; assay: microbe, parasite or virus in culture; assay type: cell-based; conditions: Vesicular stomatitis virus, 72 h, read-out: VSVpp (EC50, μM)
[2] = system: HCVpp GT-1b; assay: microbe, parasite or virus in culture; assay type: cell-based, Hepatitis C virus (GT1b Con1 strain); conditions: Hepatitis C virus, GT1B, 72 h, read-out: HCVpp GT-1b (EC50, μM)

CN(C)S(=O)(=O)c1ccc(CNc2nc(Nc3cc(Cl)cc(Cl)c3)n[nH]2)cc1 [Compound 17, 4-((3-(3,5-dichlorophenylamino)-1H-1,2,4-triazol-5-ylamino)methyl)-N,N-dimethylbenzenesulfonamide]
EC50 [1]: 10 µM | EC50 [2]: 10 µM

O=S(=O)(c1ccc(CNc2nc(Nc3cc(Cl)cc(Cl)c3)n[nH]2)cc1)N1CCOCC1 [Compound 21, N3-(3,5-dichlorophenyl)-N5-(4-(morpholinosulfonyl)benzyl)-1H-1,2,4-triazole-3,5-diamine]
EC50 [1]: 10 µM | EC50 [2]: 10 µM

CS(=O)(=O)N1CCC(Nc2nc(Nc3cc(Cl)cc(Cl)c3)n[nH]2)CC1 [Compound 27, N*3*-(3,5-Dichloro-phenyl)-N*5*-(1-methanesulfonyl-piperidin-4-yl)-1H-[1,2,4]triazole-3,5-diamine]
EC50 [1]: 42.4 µM | EC50 [2]: 59.6 µM

CC(C)S(=O)(=O)c1ccc(-c2c(Cl)cc(Nc3n[nH]c(NCc4ccc(C(=O)OC(C)(C)C)cc4)n3)cc2C(F)(F)F)cc1 [Compound 24, tert-butyl 4-((3-(2-chloro-4′-(isopropylsulfonyl)-6-(trifluoromethyl)biphenyl-4-ylamino)-1H-1,2,4-triazol-5-ylamino)methyl)benzoate]
EC50 [1]: 6.2 µM | EC50 [2]: 0.014 µM

CC(C)(C)OC(=O)Nc1ccc(CNc2nc(Nc3cc(Cl)cc(Cl)c3)n[nH]2)cn1 [Compound 6, Tert-butyl 5-((3-(3,5-dichlorophenylamino)-1H-1,2,4-triazol-5-ylamino)methyl)pyridin-2-ylcarbamate]
EC50 [1]: 14.5 µM | EC50 [2]: 7.81 µM

O=C(O)c1ccccc1CNc1nc(Nc2cc(Cl)cc(Cl)c2)n[nH]1 [Compound 14, 2-((3-(3,5-dichlorophenylamino)-1H-1,2,4-triazol-5-ylamino)methyl)benzoic acid; trifluoroacetic acid salt]
EC50 [1]: 100 µM | EC50 [2]: 96 µM

FC(F)(F)c1cccc(CNc2nc(Nc3cc(Cl)cc(Cl)c3)n[nH]2)c1 [Compound 26, N*3*-(3,5-Dichloro-phenyl)-N*5*-(3-trifluoromethyl-benzyl)-1H-[1,2,4]triazole-3,5-diamine]
EC50 [1]: 30.3 µM | EC50 [2]: 0.709 µM

O=S(=O)(c1ccc(CNc2nc(Nc3cc(Cl)cc(Cl)c3)n[nH]2)cc1)N1CCCC1 [Compound 20, N3-(3,5-dichlorophenyl)-N5-(4-(pyrrolidin-1-ylsulfonyl)benzyl)-1H-1,2,4-triazole-3,5-diamine]
EC50 [1]: 10 µM | EC50 [2]: 10 µM

Clc1cc(Cl)cc(Nc2n[nH]c(NCc3cncnc3)n2)c1 [Compound 31, N*3*-(3,5-Dichloro-phenyl)-N*5*-pyrimidin-5-ylmethyl-1H-[1,2,4]triazole-3,5-diamine]
EC50 [1]: 100 µM | EC50 [2]: 44.3 µM

O=C(O)c1cccc(CNc2nc(Nc3cc(Cl)cc(Cl)c3)n[nH]2)c1 [Compound 13, 3-((3-(3,5-dichlorophenylamino)-1H-1,2,4-triazol-5-ylamino)methyl)benzoic acid; trifluoroacetic acid salt]
EC50 [1]: 78.1 µM | EC50 [2]: 37.5 µM

CC(C)(C)OC(=O)c1ccc(CNc2nc(Nc3cc(Cl)cc(Cl)c3)n[nH]2)cc1 [Compound 7, tert-butyl 4-((3-(3,5-dichlorophenylamino)-1H-1,2,4-triazol-5-ylamino)methyl)benzoate]
EC50 [1]: 33.3 µM | EC50 [2]: 0.414 µM

CC(C)(C)OC(=O)N1CCC(Nc2nc(Nc3cc(Cl)cc(Cl)c3)n[nH]2)CC1 [Compound 28, 4-[5-(3,5-Dichloro-phenylamino)-2H-[1,2,4]triazol-3-ylamino]-piperidine-1-carboxylic acid tert-butyl ester]
EC50 [1]: 11.1 µM | EC50 [2]: 6.57 µM

Clc1ccc(CNc2nc(Nc3cc(Cl)cc(Cl)c3)n[nH]2)nc1 [Compound 5, N5-((5-chloropyridin-2-yl)methyl)-N3-(3,5-dichlorophenyl)-1H-1,2,4-triazole-3,5-diamine]
EC50 [1]: 33.6 µM | EC50 [2]: 1.57 µM

CC(C)(C)OC(=O)c1ccccc1CNc1nc(Nc2cc(Cl)cc(Cl)c2)n[nH]1 [Compound 8, tert-butyl 2-((3-(3,5-dichlorophenylamino)-1H-1,2,4-triazol-5-ylamino)methyl)benzoate]
EC50 [1]: 22 µM | EC50 [2]: 9.99 µM

Cc1ccc(CNc2nc(Nc3cc(Cl)cc(Cl)c3)n[nH]2)o1 [Compound 3, N3-(3,5-dichlorophenyl)-N5-((5-methylfuran-2-yl)methyl)-1H-1,2,4-triazole-3,5-diamine]
EC50 [1]: 19.3 µM | EC50 [2]: 3.27 µM

Clc1cc(Cl)cc(Nc2n[nH]c(NC3CCNCC3)n2)c1 [Compound 29, N*3*-(3,5-Dichloro-phenyl)-N*5*-piperidin-4-yl-1H-[1,2,4]triazole-3,5-diamine; compound with trifluoro-acetic acid]
EC50 [1]: 10 µM | EC50 [2]: 10 µM

CC(=O)N1CCC(Nc2nc(Nc3cc(Cl)cc(Cl)c3)n[nH]2)CC1 [Compound 30, 1-{4-[5-(3,5-Dichloro-phenylamino)-2H-[1,2,4]triazol-3-ylamino]-piperidin-1-yl}-ethanone]
EC50 [1]: 49.6 µM | EC50 [2]: 95.8 µM

FC(F)(F)c1ccc(CNc2nc(Nc3cc(Cl)cc(Cl)c3)n[nH]2)cc1Cl [Compound 19, N5-(3-chloro-4-(trifluoromethyl)benzyl)-N3-(3,5-dichlorophenyl)-1H-1,2,4-triazole-3,5-diamine]
EC50 [1]: 10 µM | EC50 [2]: 4.83 µM

CS(=O)(=O)c1ccc(CNc2nc(Nc3cc(Cl)cc(Cl)c3)n[nH]2)cc1 [Compound 15, N3-(3,5-dichlorophenyl)-N5-(4-(methylsulfonyl)benzyl)-1H-1,2,4-triazole-3,5-diamine]
EC50 [1]: 10 µM | EC50 [2]: 10 µM

Cn1cc(CNc2nc(Nc3cc(Cl)cc(Cl)c3)n[nH]2)cn1 [Compound 11, N3-(3,5-dichlorophenyl)-N5-((1-methyl-1H-pyrazol-4-yl)methyl)-1H-1,2,4-triazole-3,5-diamine]
EC50 [1]: 25.7 µM | EC50 [2]: 23.9 µM

Clc1cc(Cl)cc(Nc2n[nH]c(NCc3ccccc3)n2)c1 [Compound 9, N5-benzyl-N3-(3,5-dichlorophenyl)-1H-1,2,4-triazole-3,5-diamine]
EC50 [1]: 22.8 µM | EC50 [2]: 1.72 µM

CC(C)(C)OC(=O)c1ccc(CNc2nc(Nc3cc(Cl)c(C#N)c(Cl)c3)n[nH]2)cc1 [Compound 23, tert-butyl 4-((3-(3,5-dichloro-4-cyanophenylamino)-1H-1,2,4-triazol-5-ylamino)methyl)benzoate]
EC50 [1]: 10 µM | EC50 [2]: 0.029 µM

Clc1cc(Cl)cc(Nc2n[nH]c(NCc3ccco3)n2)c1 [Compound 2, N3-(3,5-dichlorophenyl)-N5-(furan-2-ylmethyl)-1H-1,2,4-triazole-3,5-diamine]
EC50 [1]: 11.9 µM | EC50 [2]: 2.58 µM

FC(F)(F)c1ccc(CNc2nc(Nc3cc(Cl)c(Br)c(C(F)(F)F)c3)n[nH]2)cc1 [Compound 1, N3-(4-bromo-3-chloro-5-(trifluoromethyl)phenyl)-N5-(4-(trifluoromethyl)benzyl)-1H-1,2,4-triazole-3,5-diamine]
EC50 [1]: 13.7 µM | EC50 [2]: 1.35 µM

N#Cc1ccc(CNc2nc(Nc3cc(Cl)cc(Cl)c3)n[nH]2)cc1 [Compound 16, 4-((3-(3,5-dichlorophenylamino)-1H-1,2,4-triazol-5-ylamino)methyl)benzonitrile]
EC50 [1]: 10 µM | EC50 [2]: 3.34 µM

FC(F)(F)c1ccc(CNc2nc(Nc3cc(Cl)cc(Cl)c3)n[nH]2)cc1 [Compound 25, N*3*-(3,5-Dichloro-phenyl)-N*5*-(4-trifluoromethyl-benzyl)-1H-[1,2,4]triazole-3,5-diamine]
EC50 [1]: 29.1 µM | EC50 [2]: 0.046 µM

FC(F)(F)c1ccc(Cl)cc1CNc1nc(Nc2cc(Cl)cc(Cl)c2)n[nH]1 [Compound 4, N5-(5-chloro-2-(trifluoromethyl)benzyl)-N3-(3,5-dichlorophenyl)-1H-1,2,4-triazole-3,5-diamine]
EC50 [1]: 13.2 µM | EC50 [2]: 4.66 µM

Nc1ccc(CNc2nc(Nc3cc(Cl)cc(Cl)c3)n[nH]2)cn1 [Compound 10, N5-((6-aminopyridin-3-yl)methyl)-N3-(3,5-dichlorophenyl)-1H-1,2,4-triazole-3,5-diamine]
EC50 [1]: 100 µM | EC50 [2]: 58.3 µM

O=C(O)c1ccc(CNc2nc(Nc3cc(Cl)cc(Cl)c3)n[nH]2)cc1 [Compound 12, 4-((3-(3,5-dichlorophenylamino)-1H-1,2,4-triazol-5-ylamino)methyl)benzoic acid; trifluoroacetic acid salt]
EC50 [1]: 100 µM | EC50 [2]: 19.5 µM

N#Cc1c(Cl)cc(Nc2n[nH]c(NCc3ccc(C(F)(F)F)cc3)n2)cc1Cl [Compound 22, 2,6-dichloro-4-(5-(4-(trifluoromethyl)benzylamino)-1H-1,2,4-triazol-3-ylamino)benzonitrile]
EC50 [1]: 5.3 µM | EC50 [2]: 0.224 µM
